Laboratory results reported in patent US20150203517A1, “Prodrugs of Compounds that Enhance Antifungal Activity and Compositions of Said Prodrugs” (priority 2014, published 2015).
Structures can show the parent of a compound that is named as a salt.

Legend:
[1] = Conversion of prodrugs to compound 1 in mouse plasma; assay type: in vitro ADME; conditions: mouse plasma (Na-Heparin treated); for Prodrug loss at 0.5 hr / Prodrug loss at 1 hr: 37° C.; for Prodrug solubility in plasma: equivalent to 1.00 mg/mL of compound 1, * = Plasma quickly became cloudy
Procedure: (§1) Step 1. Sample preparation. A quantity of blank mouse plasma (Na-Heparin treated) was incubated at 37° C. for 30 minutes. An amount of the compound sample was precisely weighed to correspond to around 5.00 mg of the hydroxamate of compound 1, taking into account the mass of the leaving group and the salt factor if applicable. The sample was placed in a 16×125 mm glass screw cap tube. The incubated blank mouse plasma was added so that the final concentration of hydroxamate 1 was 1.00 mg/mL. The sample was sonicated for 30 seconds, shaken for 30 seconds on a Vortex apparatus, and run through the HPLC procedure of Step 2 to get a time point zero value. The samples were stored in an incubator at 37° C., and the HPLC analysis of Step 2 was repeated at 30 minutes and 1 hour
(§2) Step 2. Protein precipitation and HPLC analysis of plasma. A 50 μL aliquot of plasma was taken in a 1.5 mL Eppendorf vial, to which was added 200 μL of MeCN. The vial was capped and shaken on a Vortex apparatus for 30 seconds, then centrifuged at 13000 rpm (15700 rcf) for five minutes. When centrifuging was complete, 100 μL of the supernatant was placed in an injection vial containing an insert, to which was added 100 μL of 0.1% formic acid in water. The vial was capped and shaken on a Vortex apparatus for 30 seconds, and the contents were injected into the HPLC-UV instrument, and a comparison was made of the retention time, peak areas and level of degradation (if any) using the GDADI50 method.

[2] = Conversion of prodrugs to compound 1 in human plasma; assay type: in vitro ADME; conditions: human plasma (Na-Heparin treated), 37° C.
Procedure: as §1, with “blank human” for “blank mouse”, “repeated in” for “repeated at”, “1 hour.” for “1 hour”
as §2
Step 3. Reference sample preparation. An amount of the compound sample was precisely weighed to correspond to around 5.00 mg of the hydroxamate of compound 1, taking into account the mass of the leaving group and the salt factor if applicable. The sample was placed in a 16×125 mm glass screw cap tube. A quantity of MeCN/H2O 50/50 v/v was added so that the final concentration of hydroxamate 1 was 1.00 mg/mL. An injection vial was filled with 100 μL of this sample stock solution and 900 μL of a solution of 40/60 MeCN/0.1% formic acid in water. The vial was capped and the contents were injected into the HPLC-UV instrument, and a comparison was made of the retention time, peak areas and level of degradation (if any) using the GDADI50 method.

[3] = Saline solubility at 1.00 mg/mL and 0.50 mg/mL (with pH by indicator paper); assay type: physicochemical; conditions: for pH at 1.00 mg/mL of MGCD290 in saline: final concentration of hydroxamate 1 1.00 mg/mL, pH indicator paper; for solubility at 1 h: saline or isotonic, thermodynamic from solid, 1.00 mg/mL as hydroxamate 1, shaken 1 hour, centrifuged, soluble = no precipitate formed, read-out: Soluble at 1.00 mg/mL of MGCD290 (Y/N)
How it was run: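 Prodrug was weighed to give 1.00 mg/mL hydroxamate equivalent in saline, vortexed 1 h and centrifuged, and diluted to 0.50 mg/mL if it precipitated. pH was checked by indicator paper. Stability in solution diluted 1:1 with saline was followed by HPLC-UV at 0, 6 and 24 h.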

[4] = Saline solubility at 10.00 mg/mL, 5.00 mg/mL and 2.50 mg/mL (with pH by pH meter); assay type: physicochemical; conditions: saline or isotonic, thermodynamic from solid, concentration expressed as equivalent of Cpd 1, highest tested concentration soluble, read-out: Highest prodrug solubility in saline (equivalent of Cpd 1)
Procedure: The following procedures were used
Step 1. Sample preparation. An amount of the compound sample was precisely weighed to correspond to around 10 mg of the hydroxamate of compound 1, taking into account the mass of the leaving group and the salt factor if applicable. The sample was placed in a 16×125 mm glass screw cap tube. Saline was added so that the final concentration of hydroxamate 1 was 10.00 mg/mL. The tube was shaken for 1 hour on a Vortex apparatus then centrifuged at 3000 rpm (1800 rcf) for 5 minutes. If the compound example was soluble (no precipitate formed) then the pH was measured with a pH meter, and the procedure continued to step 2. If a precipitate formed then the sample was diluted with saline so that the final concentration of the hydroxamate of compound 1 became 5.00 mg/mL, and the shaking and centrifuging steps were repeated. If the compound example was soluble (no precipitate formed) then the pH was measured with a pH meter, and the procedure continued to step 2. If a precipitate formed then the sample was diluted with saline so that the final concentration of the hydroxamate of compound 1 became 2.50 mg/mL, and the shaking and centrifuging steps were repeated. If the compound example was soluble (no precipitate formed) then the pH was measured with a pH meter, and the procedure continued to step 2

Prodrug loss at 0.5 hr [1] [%]	Prodrug loss at 1 hr [1] [%]	Prodrug solubility in plasma [1]	Prodrug loss at 0.5 hr [2] [%]	Prodrug loss at 1 hr [2] [%]	pH at 1.00 mg/mL of MGCD290 in saline [3]	solubility at 1 h [3] [mg/mL]	solubility at 1 h [4] [mg/mL]	Compound
100	100	Yes*	98.6	99.4	4.5-5	> 1	10	COCCOCC(=O)NCCCC[C@H](NC(=O)COCCOC)C(=O)NCCC(=O)ONC(=O)Cc1ccc(CCCCc2ccccc2)cc1 [Compound 68]
100	100	Yes*	85.5	99.6	4.5-5	> 1	10	Cl.O=C(Cc1ccc(CCCCc2ccccc2)cc1)NOC(=O)CCC1CCNCC1 [Compound 110, 2-(4-(4-Phenylbutyl)phenyl)-N-(3-(piperidin-4-yl)propanoyloxy) acetamide hydrochloride]
98	99	Yes*	65.5	90.5	4.5-5	> 1	10	COCCOCCOCCOCCOCCOCC(=O)N1CCC(CCC(=O)ONC(=O)Cc2ccc(CCCCc3ccccc3)cc2)CC1 [Compound 111, N-(3-(1-2,5,8,11,14,17-Hexaoxanonadecanepiperidin-4-yl)propanoyloxy)-2-(4-(4-phenylbutyl)phenyl)acetamide]
100	100	Yes	–	–	4.5-5	> 1	–	COCCOCCOCCOCCOCCOCC(=O)N1CCC(C(=O)ONC(=O)Cc2ccc(CCCCc3ccccc3)cc2)CC1 [Compound 120]

More lines, now with the values behind:

Compound	Prodrug loss at 0.5 hr [1] [%]	Prodrug loss at 1 hr [1] [%]	Prodrug solubility in plasma [1]	Prodrug loss at 0.5 hr [2] [%]	Prodrug loss at 1 hr [2] [%]	pH at 1.00 mg/mL of MGCD290 in saline [3]	solubility at 1 h [3] [mg/mL]	solubility at 1 h [4] [mg/mL]
COCCOCCOCCOCCOCCOCC(=O)N1CCC(CCCC(=O)ONC(=O)Cc2ccc(CCCCc3ccccc3)cc2)CC1 [Compound 122]	100	100	Yes**	66.6	91.9	5.-5.5	> 1	10
COCCOCCOCC(=O)NCCCC[C@H](NC(=O)COCCOCCOC)C(=O)N(C)CCCC(=O)ONC(=O)Cc1ccc(CCCCc2ccccc2)cc1 [Compound 64, (S)—N,N′-(6-(Methyl(4-oxo-4-(2-(4-(4-phenylbutyl)phenyl)acetamidooxy)butyl)amino)-6-oxohexane-1,5-diyl)bis(2-(2-(2-methoxyethoxyl)ethoxy)acetamide)]	100	100	Yes	78.7	100.0	4.5-5	> 1	10
NCCCC[C@H](N)C(=O)NCCC(=O)ONC(=O)Cc1ccc(CCCCc2ccccc2)cc1 [Compound 14, (S)-2,6-Diamino-N-(3-oxo-3-(2-(4-(4-phenylbutyl)phenyl)acetamidooxy)propyl)hexanamide di-hydrochloride]	100	100	Yes*	100	100.0	4-4.5	> 1	10
NCC1(C(=O)ONC(=O)Cc2ccc(CCCCc3ccccc3)cc2)CC1 [Compound 54, N-(1-(aminomethyl)cyclopropanecarbonyloxy)-2-(4-(4-phenylbutyl)phenyl)acetamide]	62.6	100	Yes	50.9	71.6	4-4.5	> 1	2.5
